# Tests used:
# [1] = tested on: Human patients diagnosed as having kerratoconjunctivitis sicca (KCS; dry eye); assay: Conjunctival lissamine green staining in dry eye patients treated with eye drops; format: in vivo; conditions: day 42, patients with Schirmer score <5 mm/5 min and SPK score at least 3
# Procedure: Human patients diagnosed as having kerratoconjunctivitis sicca (KCS; dry eye) were treated with eye drops containing either various concentrations of tacrolimus, a macrolide compound according to the invention or placebo. Eye drops were administered 3 times per day for six weeks (42 days). Patients were evaluated using the Schirmer test; corneal fluorescein staining, conjunctival lissamine green staining and an ocular discomfort score. Conjunctival lissamine green staining was performed by instilling a drop of lissamine green ophthalmic solution into the cul-de-sac of the eye. Following instillation, punctate staining was evaluated for the nasal and temporal interpalpebral conjunctiva using the following scoring system: [table]
# [2] = tested on: Human patients diagnosed as having kerratoconjunctivitis sicca (KCS; dry eye); assay: Ocular discomfort score in dry eye patients treated with eye drops; format: in vivo; conditions: day 42, patients with Schirmer score <5 mm/5 min and SPK score at least 3
# Procedure: Human patients diagnosed as having kerratoconjunctivitis sicca (KCS; dry eye) were treated with eye drops containing either various concentrations of tacrolimus, a macrolide compound according to the invention or placebo. Eye drops were administered 3 times per day for six weeks (42 days). Patients were evaluated using the Schirmer test; corneal fluorescein staining, conjunctival lissamine green staining and an ocular discomfort score. Patients were also evaluated based on ratings of their ocular discomfort, which was a composite of scores for burning/stinging, irritation, photophobia, dry eye sensation and foreign body sensation. Scoring was on a five-point scale, as follows: [table]
# [3] = 0.01% eye drops 3 times per day
# [4] = 0.06% eye drops 3 times per day
smiles,measurement,setting,value
C=CCC1/C=C(\C)CC(C)CC(OC)C2OC(O)(C(=O)C(=O)N3CCCCC3C(=O)OC(/C(C)=C/C3CCC(O)C(OC)C3)C(C)C(O)CC1=O)C(C)CC2OC (stereo not shown) [macrolide compound],lissamine green staining decrease from baseline,[1]; [3],1.8±1.47 units
same,lissamine green staining decrease from baseline,[1]; [4],3.9±2.03 units
same,mean ocular discomfort decrease from baseline,[2]; [3],6.0±4.43 units
same,mean ocular discomfort decrease from baseline,[2]; [4],6.8±3.01 units

# From patent publication US20040198763A1, “Method of treating dry eye with a macrolide compound” (Sucampo AG, priority 2003, published 2004)
